Measured values reported in patent publication US20250213707A1, “COMPOUND FOR INCREASING EFFICACY OF ONCOLYTIC VIRUSES” (ABLEVIA BIOTECH GMBH, priority 2022, published 2025).

Experiments:
Format in all cases: binding
mAb E10B10 = experiment: Fine epitope mapping of mAb E10B10 with 1068 circular peptides from SRCR-1 to -3 of mouse CD163; conditions: circular peptides of 7, 10 and 13 amino acids from mouse CD163
From the text: The epitope of this antibody was fine mapped using circular peptide arrays, whereby the peptides were derived from mouse CD163.

mAb Mac2-158 = experiment: Epitope mapping of mAb Mac2-158 with circular peptides of human CD163 SRCR domain 1; conditions: circular peptides aligned to SRCR domain 1 of human CD163
From the text: As a result, the following sequences (as well as motifs derived therefrom) are highly suitable epitopes anti-CD163 antibodies and fragments thereof used as SADC biopolymer scaffold: […]

[1] = test system: IgG from human donors (anti-AAV antibodies); experiment: Screen for anti-AAV antibodies in human sera, 2452 linear 15-amino-acid AAV peptides on microarrays (Table 1); parameters: key to group I: X: the deduplicated aggregate of the respective top 10 peptide hits for each donor was compiled and designated as group I; key to group II: X: the deduplicated aggregate of the respective top 25 peptide hits for each donor was compiled and designated as group II; key to group III: X: the deduplicated aggregate of the respective top 50 peptide hits for each donor was compiled and designated as group III; conditions: human donor IgG binding to linear 15-amino-acid AAV peptides on microarray, fluorescence; for group I: membership in deduplicated aggregate of top 10 peptide hits for each donor; for group II: membership in deduplicated aggregate of top 25 peptide hits for each donor; for group III: membership in deduplicated aggregate of top 50 peptide hits for each donor
How it was run: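 Protein G-purified IgG from human donor blood incubated with microarrays of 2452 linear 15-mer peptides from 16 AAVs; binding read by fluorescence. Background-subtracted signals ranked per donor, with top 10, 25, 50 and 250 hits pooled and deduplicated into groups I-IV.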

[2] = test system: IgG from human donors (anti-measles virus antibodies); parameters: key: X: The peptides belonging to the Top 10% hits

376 (AVTNAPGEMK) [compound 376]
rank by relative signal strength (top binding peptides of mAb E10B10) (mAb E10B10): 09

371 (VTNAPGE) [compound 371]
rank by relative signal strength (top binding peptides of mAb E10B10) (mAb E10B10): 04

369 (ASAVTNAPGEMKK) [compound 369]
rank by relative signal strength (top binding peptides of mAb E10B10) (mAb E10B10): 02

378 (ASAVTNAPGE) [compound 378]
rank by relative signal strength (top binding peptides of mAb E10B10) (mAb E10B10): 11

372 (GSASAVTNAPGEM) [compound 372]
rank by relative signal strength (top binding peptides of mAb E10B10) (mAb E10B10): 05

375 (SGSASAVTNAPGE) [compound 375]
rank by relative signal strength (top binding peptides of mAb E10B10) (mAb E10B10): 08

KIFNIQVKEVTTSN (REGION 1..14: note = peptide derived from viral capsid protein) [SEQ ID NO: 1896]
peptide number among the top 20 peptide hits of mAb Mac2-158 (mAb Mac2-158): 20 | group I [1]: X | group II [1]: X | group III [1]: X | top 10% [2]: X

370 (VTNAPGEMKK) [compound 370]
rank by relative signal strength (top binding peptides of mAb E10B10) (mAb E10B10): 03

373 (AVTNAPGEMKKEL) [compound 373]
rank by relative signal strength (top binding peptides of mAb E10B10) (mAb E10B10): 06

368 (VTNAPGEMKKELR) [compound 368]
rank by relative signal strength (top binding peptides of mAb E10B10) (mAb E10B10): 01

380 (TNAPGEMKKE) [compound 380]
rank by relative signal strength (top binding peptides of mAb E10B10) (mAb E10B10): 13

374 (SASAVTNAPGEMK) [compound 374]
rank by relative signal strength (top binding peptides of mAb E10B10) (mAb E10B10): 07

379 (SAVTNAPGEMKKE) [compound 379]
rank by relative signal strength (top binding peptides of mAb E10B10) (mAb E10B10): 12

377 (SAVTNAPGEM) [compound 377]
rank by relative signal strength (top binding peptides of mAb E10B10) (mAb E10B10): 10

DEEEIRTTNPVATE (REGION 1..14: note = peptide derived from viral capsid protein) [SEQ ID NO: 1902]
peptide number among the top 20 peptide hits of mAb Mac2-158 (mAb Mac2-158): 18 | group I [1]: X | group II [1]: X | group III [1]: X | top 10% [2]: X
